16 compounds from patent publication US20020004458A1, “Methods for inducing production of isoflavone levels in plants using nuclear receptor ligands” (priority 2000, published 2002) can be followed below.

Assay type in all cases: in vivo
The subject of assay [1] is soybean cotyledons (cultivar Williams). The experiment in a line: Soybean snapped cotyledon assay: loading of isoflavone (daidzein) conjugate pools. The protocol:
The snapped cotyledon assay is a minimal wound assay used to investigate the effects of test compounds in a non-primed background. The assay is performed by snapping cotyledons in two and placing the petiole side down in 0.5% water agar. Ten snapped cotyledons are used per treatment, and the subepidermal cells exposed by snapping are treated with glucan defense elicitor and/or the effector being examined. The cotyledons are incubated in the light for 48 hr as in the cut cotyledon assay. Both proximal (first cell layer) and distal (second and third cell layers) are harvested for analysis by HPLC (see below). Full details of this assay can be found in the publication: Graham, T. L. and Graham, M. Y. 1996. Signaling in soybean phenylpropanoid responses: dissection of primary, secondary and conditioning-effects of light, wounding and elicitor treatments. Plant Physiol. 110:1123-1133, which is specifically incorporated herein by reference.
The snapped cotyledon assay is “naive”. That is, it is not pre-disposed or primed for competency for the elicitation of phytoalexin glyceollin in response to the glucan elicitor. Thus, treatment with the glucan elicitor induces the formation of the isoflavones daidzein and genistein, but very little glyceollin. This is an excellent assay to study the effects of a chemical treatment on isoflavone metabolism by itself or in combination with the glucan. In the absence of the glucan, it gives an excellent picture of the effects of the compound alone on isoflavone metabolism. In the presence of the glucan, it tells us if the test compound can induce elicitation competency for the glyceollin response to the glucan.
(§1) High performance liquid chromatography (HPLC) is the . method of choice for determining the levels of isoflavone defense compounds in soybean. With a single HPLC analysis, one gets a complete and quantitative profile of up to 50 or more aromatic compounds, including all the isoflavones and their conjugates and the phytoalexins, including glyceollin. As little as 20 mg of plant tissue is needed and the method can be readily applied to cotyledon, leaf or any soybean tissue. This analytical method allows us to determine the nmoles/gm of each metabolite, which can then readily be processed to compare the percent increase or decrease of a given metabolite in comparison to either water or glucan treated control tissues. Routinely, tissues are extracted in 80% ethanol and subjected to water/acetonitrile gradient elution from a C18 reverse phase HPLC column. Full details of this procedure can be found in the publication: Graham, T. L. 1991. A Rapid, High Resolution High Performance Liquid Chromatography Profiling Procedure for Plant and Microbial Aromatic Secondary Metabolites. Plant Physiology 95:584-593, which is specifically incorporated herein by reference.
Cotyledons (10 per treatment) from 7 day old Williams variety soybean were treated with a formulation comprising estrogens, estrogen agonists, and peroxisome proliferators. Each NRL was dissolved either in water or first in isopropanol to give a saturated solution followed by rapid dilution in water. […] NRLs were tested over a concentration range of about 10 uM to 1 mM, using serial 3 fold dilutions from 1 mM. NRLs were tested both alone and in the presence of 30 ug/ml of the glucan elicitor from the fungal pathogen Phytophthora sojae. Concentrations of the NRL and glucan noted here are final concentrations on the treated cotyledon.
The exposed surface of each snapped cotyledon was treated with 7 μL of the NRL followed by 7 μL of the glucan or water. Cotyledons were incubated in constant light (200 t;,Einsetins) for 48 hr. At 48 hr, a thin (translucent) section was harvested from the treated cotyledon surface. Sections from the 10 cotyledons for each treatment were pooled and extracted in 80% ethanol (400 μL for each 50 mG fresh weight). The extract was then subjected to HPLC as described above. […]

Assay [2] has the same test system. The experiment in a line: Soybean cut cotyledon assay: potentiation of glyceollin (phytoalexin) elicitation by glucan elicitor. To be noted: 33 uM, applied immediately before glucan elicitor and 10 uM orthovanadate, 48 hr, average of two experiments. The procedure:
(§2) The cut cotyledon assay is used to investigate both the ability of the nuclear receptor ligand to activate basal elicitation competency in plants, and to evaluate the ability of a second compound such as the glucan defense elicitor from the fungal pathogen Phytophthora sojae to enhance glyceollin elicitation competency in plants in which the isoflavone pools were “loaded” by the action of the ligand. The level of isoflavones in the cotyledon tissues are measured after the addition of different nuclear receptor ligands to determine the effectiveness of each in inducing the basal production of isoflavones in cotyledon tissues. In such studies, the addition of the nuclear receptor ligand first “primes” the cut cotyledon, i.e., increases the levels of the isoflavone daidzen. That is, the competency for the elicitation of the phytoalexin glyceollin in response to the glucan elicitor from Phytophthora sojae is already partially activated. This means that increases in the isoflavone daidzein, which is the precursor for glyceollin, are usually rapidly shunted into glyceollin when the glucan defense elicitor is added to the system. Thus, the ability of the ligand to enhance glyceollin elicitation competency by “loading” the isoflavone pools can also be measured.
(§3) Cotyledons from 7-8 day old soybean seedlings are removed from the plant and cut on the lower surface to expose subepidermal tissues. A 30 p,L drop of test compound (elicitor and/or loader) is placed on the cut surface. Ten cotyledons are used per treatment and arranged in a petri plate containing a wet filter paper to keep the cotyledons moist. After incubation at room temperature at approximately 200 p.Einsteins of light for 48 hr the cotyledon tissues are harvested for analysis. Tissues for analysis are harvested by cutting a vertical column of cells from the cotyledon using a number 1 cork borer. The column of cells is then subsampled by cutting slices of cells progressively away from the original cut surface. The first section is approximately 4 cell layers thick and the second two are approximately 8 cell layers thick. These allow the examination of proximal and distal effects of treatments, respectively. Tissues are analyzed by HPLC as noted below. Full details of this assay can be found in the publication: Graham, T. L., and Graham, M. Y. 1991. Glyceollin Elicitors Induce Major But Distinctly Different Shifts in Isoflavonoid Metabolism in Local and Distal Cell Populations. Molecular Plant Microbe Interactions 4:60-68, which is specifically incorporated herein by reference.
as §1
(§4) Cotyledons (10 per treatment) from 7 day old Williams variety soybean were treated with a formulation comprising estrogens, estrogen agonists, and peroxisome proliferators. […]

For assay [3] the test system is unchanged. The experiment in a line: Soybean cut cotyledon assay: loading of daidzein conjugate / isoflavone pools. To be noted: for Percent increase in total daidzein conjugate pools compared to a water control (Table 2) / Percent increase in total daidzein conjugate pools compared to a water control (Table 4): 33 uM, average of two experiments. The procedure: as §2, §3, §1, §4

Assay [4] has as its system cotyledons of lima bean, mung bean, green bean, peanuts, and chickpeas. The experiment in a line: Cut cotyledon assay on legumes other than soybean: increase in isoflavones. To be noted: ergosterol at 100 p,M; range in each plant species; isoflavones identified by ultraviolet spectra.
Assay [5] deals with soybean primary leaves. Kind of assay: Soybean leaf infiltration: isoflavone increases after ergosterol treatment. The conditions noted are these: 48 hours, over control. The protocol: as §1
True leaves of soybean plants are also treated as described above in Example 1. For tests on true leaves of soybean or other plants, two methods are used. In the laboratory a small spot on the leaves is vacuum filtrated using a filter disc platform hooked to a water aspirator. The leaf is placed on the filter disc platform and mild suction applied. A drop of the glucan elicitor and the nuclear receptor ligand formulation is then placed on the exposed surface of the leaf and allowed to infiltrate the tissue through the leaf stomatal pores. For the greenhouse or field, the nuclear receptor ligand is added to a surfactant to emulsify and disperse the ligand. In all of these assays, the tissues are again analyzed by HPLC as described above.
Moreover, the isoflavone formononetin is normally found only as a trace metabolite in soybean tissues. It is commonly found in chickpea. Treatment of soybean leaves with a nuclear receptor ligand, however, caused very significant accumulations of daidzein and formononetin aglycones and genistein conjugates. […] Ergosterol was directly infiltrated into the primary leaves, which were analyzed after 48 hours.

[6] abbreviates: 33 uM, average of two experiments.
Setting [7] is: cut cotyledon assay, Williams cotyledons, concentrations 50-500 p,M.
Where [8] appears, read: ergosterol 1 micromolar infiltrated into primary leaves.
Setting [9] is: ergosterol 10 micromolar infiltrated into primary leaves.
The mark [10] stands for this setting: ergosterol 100 micromolar infiltrated into primary leaves.

For the compound `CC(C)(Oc1ccccc1Cl)C(=O)O` [CPMPA, 2-(o-chlorophenoxy)-2-methylpropionic acid], in assay [1] (setting [6]), the “Percent increase in daidzein conjugate pools compared to a water control (Table 3)” value (“Percent increase … (Table 3)” for short) is reported as “+42%”.

Consider `CC(C)(Oc1ccc(C2CC2(Cl)Cl)cc1)C(=O)O` (centres unmarked) [Ciprofibrate, ciprofibrate], for which the “Percent increase in glyceollin elicitation compared to a glucan elicitor control” value (“Percent increase … to a glucan elicitor control” for short) in assay [2] was 199%. Besides, in assay [3] (cut cotyledon assay), the “Percent increase in total daidzein conjugate pools compared to a water control (Table 2)” value (“Percent increase … (Table 2)” below) came to 52% and the “Percent increase in total daidzein conjugate pools compared to a water control (Table 4)” value (shortened to “Percent increase … (Table 4)”) is reported as 52%. Further, the “Percent increase … (Table 3)” value in assay [1] (setting [6]) is “+52%”.

With `C[C@]12CC[C@@H]3c4ccc(O)cc4CC[C@H]3[C@@H]1CC[C@@H]2O` [Beta-Estradiol, 17-beta-estradiol], the “Percent increase … to a glucan elicitor control” value in assay [2] worked out at 205%. Moreover, in assay [3] (cut cotyledon assay), the “Percent increase … (Table 2)” value stood at 64% and the “Percent increase … (Table 4)” value was 64%. The “Percent increase … (Table 3)” value in assay [1] (setting [6]) was “+64%”.

Regarding `C[C@]12CC[C@@H](O)C[C@@H]1CC[C@@H]1[C@@H]2CC[C@]2(C)C(=O)CC[C@@H]12` [androsterone], the “Range of increase of isoflavones over the concentration range” value (“Range of increase of isoflavones” for short) in assay [3] (in vivo) is listed as 30-40%.

For the compound `CC(=O)[C@H]1CC[C@H]2[C@@H]3CCC4=CC(=O)CC[C@]4(C)[C@H]3CC[C@]12C` [Progesterone, progesterone], the “Range of increase of isoflavones” value in assay [3] (setting [7]) is on record as 20-60%.

`C[C@@H]1C[C@H]2[C@@H]3CCC4=CC(=O)C=C[C@]4(C)[C@@]3(F)[C@@H](O)C[C@]2(C)[C@@]1(O)C(=O)CO` [dexamethasone]: in assay [3] (setting [7]), the “Range of increase of isoflavones” value is 0-10%.

Take `CC/C(=C(/CC)c1ccc(O)cc1)c1ccc(O)cc1` [Diethylstilbestrol, diethylstilbestrol]: the “Percent increase … to a glucan elicitor control” value in assay [2] is recorded as 86%. In assay [3] (cut cotyledon assay), the “Percent increase … (Table 2)” value was 36% and the “Percent increase … (Table 4)” value is on record as 38%.

With `O=c1c(-c2ccc(O)cc2)coc2cc(O)cc(O)c12` [Genistein, genistein], the “Percent increase … (Table 3)” value in assay [1] (genistein applied as smaller doses on an hourly basis for 8 hours) is reported as “+54%”.

With `CC(=O)[C@H]1CC[C@H]2[C@@H]3CC=C4C[C@@H](O)CC[C@]4(C)[C@H]3CC[C@]12C` [5-pregnenolone], in assay [3] (setting [7]), the “Range of increase of isoflavones” value is listed as 5-20%.

For the compound `O=c1oc2cc(O)ccc2c2oc3cc(O)ccc3c12` [Coumestrol], the “Percent increase … to a glucan elicitor control” value in assay [2] was determined as 226%. For the same compound, in assay [3] (cut cotyledon assay), the “Percent increase … (Table 2)” value amounted to 54% and the “Percent increase … (Table 4)” value was 54%.

Consider `C[C@]12CC[C@@H]3c4ccc(O)cc4CC[C@H]3[C@@H]1C[C@@H](O)[C@@H]2O` [Estriol, estriol], for which the “Percent increase … to a glucan elicitor control” value in assay [2] worked out at 177%. For the same compound, in assay [3] (cut cotyledon assay), the “Percent increase … (Table 2)” value turned out to be 45% and the “Percent increase … (Table 4)” value came out at 45%. Also, the “Percent increase … (Table 3)” value in assay [1] (setting [6]) is “+45%”.

For the compound `C[C@H]1CCCC(=O)CCC/C=C/c2cc(O)cc(O)c2C(=O)O1` [Zearalenone, zearalenone], in assay [2], the “Percent increase … to a glucan elicitor control” value came out at 242%. In addition, in assay [3] (cut cotyledon assay), the “Percent increase … (Table 2)” value is 58% and the “Percent increase … (Table 4)” value is given as 58%.

Take `C[C@]12CCC(=O)C=C1CC[C@@H]1[C@@H]2[C@@H](O)C[C@@]2(C)[C@H]1CC[C@]2(O)C(=O)CO` [hydrocortisone]: the “Range of increase of isoflavones” value in assay [3] (setting [7]) was 25-50%.

Take `C[C@]12CCC(=O)C=C1CC[C@@H]1[C@@H]2C(=O)C[C@@]2(C)[C@H]1CC[C@]2(O)C(=O)CO` [cortisone]: the “Range of increase of isoflavones” value in assay [3] (setting [7]) is recorded as 30-100%.

As to `CC(C)[C@@H](C)/C=C/[C@@H](C)[C@H]1CC[C@H]2C3=CC=C4C[C@@H](O)CC[C@]4(C)[C@H]3CC[C@]12C` [Ergosterol, ergosterol], the “Percent increase … to a glucan elicitor control” value in assay [2] came out at 260%. Also, in assay [3] (cut cotyledon assay), the “Percent increase … (Table 2)” value came out at 60% and the “Percent increase … (Table 4)” value is listed as 60%. Moreover, the “Percent increase … (Table 3)” value in assay [1] (setting [6]) is “+60%”. Also, the Increases in isoflavones in assay [4] was 2-60 fold. In assay [5] (setting [8]), the “Increase in Daidzein Aglycone” value is given as 5X, the “Increase in Formononetin Aglycone” value turned out to be 24X and the “Increase in Genistein Conjugates” value stood at 2X. Further, in assay [5] (setting [9]), the “Increase in Daidzein Aglycone” value was determined as 3X, the “Increase in Formononetin Aglycone” value is 27X and the “Increase in Genistein Conjugates” value is reported as 1.1X. Besides, in assay [5] (setting [10]), the “Increase in Daidzein Aglycone” value stood at 2.4X, the “Increase in Formononetin Aglycone” value turned out to be 4X and the “Increase in Genistein Conjugates” value is on record as “None”.

For the compound `C/C=C(/C(=C/C)c1ccc(O)cc1)c1ccc(O)cc1` [Dienestrol, dienestrol], in assay [2], the “Percent increase … to a glucan elicitor control” value is reported as 75%. For the same compound, in assay [3] (cut cotyledon assay), the “Percent increase … (Table 2)” value is 28% and the “Percent increase … (Table 4)” value was 28%. The “Percent increase … (Table 3)” value in assay [1] (setting [6]) is given as “+28%”.
